These results are taken from patent US4933336A, “Thiadiazinone, oxadiazinone and triazinone derivatives, and their use for treating acute or chronic heart disease” (Laboratoires Sobio S.A., priority 1987, dated 1990).

For experiment [1], the system named is Canine cardiac myofibrillar Ca++-dependent Mg++ ATPase. Nature of the experiment: Measurement of myofibrillar Ca++-dependent Mg++ATPase activity (Ca++ sensitivity and maximal activity). The class given is biochemical, canine (dog). Particulars: pH 7.0, 21° C. The method, then:
1. Measurement of myofibrillar Ca++-dependent Mg++ATPase activity
the effect on myofibrillar Ca++sensitivity and on maximal activity of myofibrillar Ca++-dependent Mg++-ATPase was determined on canine cardiac myofibrils.
(a) Contractile protein preparation
Cardiac myofibrils free of membrane contaminants were prepared from left ventricular tissue of dog hearts using a modification of the method described by SOLARO et al, Biochem. Biophys. Acta, 245, 259-262, (1971). Before centrifugration, the heart homogenate was filtered through gauze.
After Triton X-100 treatments, the myofibrillar fraction was washed once by resuspension and centrifugation in 10 volumes of 1 mM EGTA, […], 30 mM imidazole, 2 mM MgCl2, pH 7.0. The pellet was then washed three times in 10 volumes of the same buffer without EGTA. Before the last centrifugation, the suspension of myofibrils was filtered through a stainless steel sieve with 0.25 mm meshes.
Myofibrils were kept in pellet overnight. Before use, the pellet was suspended in a small amount of buffer, the protein concentration was determined by the method of BRADFORD M., Anal. Biochem., 1976, 72, 248 and adjusted in order to have a concentration between 6 and 7 mg/ml.
(b) Myofibrillar ATPase activity
Ca++-dependent myfibrillar ATPase activity was determined at 21° C., pH 7.0, by measuring the rate of release of inorganic phosphate. All assays were performed within 24 hrs. of final purification, using the method described by SOLARO and RUEGG, CIRC. RES., 51, 290-4, (1982). Reaction mixtures (4 ml) containing 0.6-0.7 mg/ml myofibrillar protein, 80 mM KCl, 20 mM imidazole, 3 mM […], 1 mM EGTA, the desired amount of CaCl2, and the indicated concentration of drug or appropriate vehicle were preincubated for 6 min. prior to assay. The amount of CaCl2 was varied between 0 and 0.9 mM and the pCA (-log free Ca++) computed using 2.514×10^6 M^-1 as the apparent affinity of Ca++for EGTA at pH 7.0.
Reactions were initiated by the addition of Na2 ATP to final concentration of 2 mM. After an incubation period of 12 min., reactions were quenched by the addition of an equal volume of ice-cold 10% trichloroacetic acid. The protein was pelleted by centrifugation (2000 g, 15 min.) and Pi was assayed in the supernatant fraction using a modification of the method described by LANZETTA et al, Anal. Biochem., 100, 95-97, (1979).
The following solutions were prepared:
(1) 3.7% ammonium heptamolybdate in 0.12N H2 SO4
(2) 0.074% malachite green oxalate in 1% polyvinylic alcohol.
the colour reagent was prepared by mixing an equal volume of solution (1) and (2) 15 min. before the assay. For the assay, 1700 μl of 1% H2 SO4 and 1 ml of colour reagent were added to 100 μl of sample. Colour development occurred at room temperature for 30 min. and was quenched by the addition of 200 μl of 1M tri-potassium citrate. The absorbance was measured at 620 millimicrons.
The effect of each compound, tested at the indicated concentration, on the relation between pCa and percent activation was determined taking 100% for the maximum ATPase activity obtained with vehicle alone. The effect on Ca++ sensitivity was quantified by measuring the shift of the pCa giving 50% of the maximal control ATPase activity.
The effect on maximal ATPase activity was expressed as the percent change of ATPase activity for pCa=5.47.

The test system of experiment [2] is conscious instrumented Dog. The experiment can be described thus: Cardiotonic activity in the conscious instrumented Dog. The class given is in vivo, dog (male Beagle). Particulars: Canis lupus familiaris, po; for change in vivo at 3 mg/kg: 3.00 mg/kg p.o.; for change in vivo at 0.3 mg/kg: 0.30 mg/kg p.o.; for change in vivo at 0.01 mg/kg: 0.01 mg/kg p.o.; for change in vivo at 0.1 mg/kg: 0.10 mg/kg p.o.; for change in vivo at 1 mg/kg: 1.00 mg/kg p.o.; for change in vivo at 0.03 mg/kg: 0.03 mg/kg p.o. As to the method: Cardiotonic activity in the conscious instrumented Dog
Male Beagle dogs, at least 2 years old, weighing 12 to 18 kg were anaesthetised with pentobarbital sodium (30 mg/kg i.v.). Respiration was maintained by a Harward pump, model 613a. The heart was exposed through a left thoracotomy and a pericardial cardle was formed. A high fidelity micromanometer (Koenigsberg P5 -P7) was inserted into left venitricular lumen through a stab incision at the apex. Wires were exteriorised to the back of the animals, placed into a size adapted jacket, and the chest closed. The experiments were conducted on the conscious dogs, 1 or 2 weeks after the surgery, when the animals had completely recovered.
Measured parameters were : first derivative of left ventricular pressure, (dP/dt, mmHg/sec); heart rate (HR, beats/min.). A control period recording of 90 min. was made with the dogs placed in a quiet room, the recordings being made outside. Compounds to be tested were administered orally in gelatin capsules and the parameters measured for 5 hrs. at least.
Results were expressed as the percentage of the maximum±SEM.

The mark [3] stands for this setting: read-out: H.R. (heart rate), percentage of the maximum ± SEM.
The mark [4] stands for this setting: read-out: dP/dt Max (first derivative of left ventricular pressure), percentage of the maximum ± SEM.

Read-outs that look alike come from different tables or passages of the source.

With `CSC1C(=O)Nc2ccc(C3=NNC(=O)SC3)cc21` (stereo not shown) [Example 11, 1,3-Dihydro-5-(3,6-dihydro-2-oxo-2H-1,3,4-thiadiazin-5-yl) -3-methylthio-2H-indol-2-one], in experiment [1] (20 × 10^-5 molar), the “Max ATPase activity (%) (percent change of ATPase activity for pCa=5.47)” value is “+1 ± 0%”. Moreover, the “Ca2+ sensitivity p CA50 (shift of the pCa giving 50% of the maximal control ATPase activity)” value in experiment [1] (20 × 10^-5 molar) came out at 0.36 ± 0.05. The change in vivo at 3 mg/kg in experiment [2] (setting [3]) was 7%; in experiment [2] (setting [4]), 51%.
With `CC1SC(=O)NN=C1c1ccc2c(c1)C(C)(C)C(=O)N2C` (stereo not shown) [Example 18, 1,3-Dihydro-5-(3,6-dihydro-6-methyl-2-oxo-2H-1,3,4-thiadiazin-5-yl)-1,3,3-trimethyl-2H-indol-2-one], in experiment [1] (3 × 10^-5 molar), the “Max ATPase activity (%) (percent change of ATPase activity for pCa=5.47)” value was “+3 ± 3%” and the “Ca2+ sensitivity p CA50 (shift of the pCa giving 50% of the maximal control ATPase activity)” value is 0.19 ± 0.03. Also, the change in vivo at 0.3 mg/kg in experiment [2] (setting [3]) came to 28%. For the same molecule, in experiment [2] (setting [4]), the change in vivo at 0.3 mg/kg was 74%.
As for `CC(=O)N1C(=O)C(C)(C)c2cc(C3=NNC(=O)SC3C)ccc21` (stereo not shown) [Example 7, 1-Acetyl-1,3-dihydro-5-(3,6-dihydro-6-methyl-2-oxo-H-1,3,4-thiadiazin-5-yl)3,3-dimethyl-2H-indol-2-one], in experiment [1] (20 × 10^-5 molar), the “Max ATPase activity (%) (percent change of ATPase activity for pCa=5.47)” value is recorded as -2 ± 3% and the “Ca2+ sensitivity p CA50 (shift of the pCa giving 50% of the maximal control ATPase activity)” value came out at 0.37 ± 0.06. Besides, the change in vivo at 0.01 mg/kg in experiment [2] (setting [3]) was determined as 9%. For the same molecule, in experiment [2] (setting [4]), the change in vivo at 0.01 mg/kg came out at 41%.
With `O=C1NN=C(c2ccc3c(c2)C2(CCCS2)C(=O)N3)CS1` (stereo not shown) [Example 20, 5'-(3,6-Dihydro-2-oxo-2H-1,3,4-thiadiazin-5-yl)-spiro [thiolane-2,3'-[3H]-indol]-2'(1'H)-one], in experiment [1] (3 × 10^-5 molar), the “Max ATPase activity (%) (percent change of ATPase activity for pCa=5.47)” value is -5 ± 3% and the “Ca2+ sensitivity p CA50 (shift of the pCa giving 50% of the maximal control ATPase activity)” value is 0.21 ± 0.05. Further, the change in vivo at 3 mg/kg in experiment [2] (setting [3]) came to 8%. Further, the change in vivo at 3 mg/kg in experiment [2] (setting [4]) amounted to 45%.
For `CC1SC(=O)NN=C1c1ccc2c(c1)CC(C)(C)C(=O)N2` (stereo not shown) [Example 36, 3,4-Dihydro-6-(3,6-dihydro-6-methyl-2-oxo-2H-1,3,4-thiadiazin-5-yl)-3,3-dimethyl-2(1H)-quinolinone], in experiment [1] (3 × 10^-5 molar), the “Max ATPase activity (%) (percent change of ATPase activity for pCa=5.47)” value is -4 ± 3% and the “Ca2+ sensitivity p CA50 (shift of the pCa giving 50% of the maximal control ATPase activity)” value is given as 0.33 ± 0.07. Further, in experiment [2] (setting [3]), the change in vivo at 0.1 mg/kg was 7%. Also, the change in vivo at 0.1 mg/kg in experiment [2] (setting [4]) was 46%.
Turning to `CC1SC(=O)NN=C1c1ccc2c(c1)C1(CCCC1)C(=O)N2C(=O)c1ccncc1` (stereo not shown) [Example 27, 5'-(3 6-Dihydro-6-methyl-2-oxo-2H-1,3,4-thiadiazin-5-yl)-1'-[(4 pyridyl)carbonyl]-spiro[cyclopentane-1,3'-[3H]indol]-2'(1'H)-one], in experiment [1] (3 × 10^-5 molar), the “Max ATPase activity (%) (percent change of ATPase activity for pCa=5.47)” value is given as “+2 ± 5%” and the “Ca2+ sensitivity p CA50 (shift of the pCa giving 50% of the maximal control ATPase activity)” value amounted to 0.47 ± 0.10. Besides, the change in vivo at 1 mg/kg in experiment [2] (setting [3]) was determined as 15%. Besides, the change in vivo at 1 mg/kg in experiment [2] (setting [4]) turned out to be 63%.
As for `CSC1(C)C(=O)Nc2ccc(C3=NNC(=O)SC3)cc21` (stereo not shown) [Example 1, 1,3-Dihydro-5-(3,6-dihydro-2-oxo-2H-1,3,4-thiadiazin-5-yl)-3-methyl-3-methylthio-2H-indol-2-one], in experiment [1] (20 × 10^-5 molar), the “Max ATPase activity (%) (percent change of ATPase activity for pCa=5.47)” value is listed as -3 ± 2% and the “Ca2+ sensitivity p CA50 (shift of the pCa giving 50% of the maximal control ATPase activity)” value came out at 0.38 ± 0.03. The change in vivo at 0.3 mg/kg in experiment [2] (setting [3]) came out at 17%. For the same molecule, in experiment [2] (setting [4]), the change in vivo at 0.3 mg/kg was 53%.
As for `CC1SC(=O)NN=C1c1ccc2c(c1)C1(CCCCC1)C(=O)N2` (stereo not shown) [Example 17], in experiment [1] (3 × 10^-5 molar), the “Max ATPase activity (%) (percent change of ATPase activity for pCa=5.47)” value is recorded as -17 ± 4% and the “Ca2+ sensitivity p CA50 (shift of the pCa giving 50% of the maximal control ATPase activity)” value is recorded as 0.41 ± 0.07. For the same molecule, the change in vivo at 3 mg/kg in experiment [2] (setting [3]) was determined as 9%. The change in vivo at 3 mg/kg in experiment [2] (setting [4]) was found to be 40%.
Regarding `CC1SC(=O)NN=C1c1ccc2c(c1)C(C)(C)C(=O)N2` (stereo not shown) [Example 3], in experiment [1] (20 × 10^-5 molar), the “Max ATPase activity (%) (percent change of ATPase activity for pCa=5.47)” value is given as -12 ± 2% and the “Ca2+ sensitivity p CA50 (shift of the pCa giving 50% of the maximal control ATPase activity)” value was found to be 0.32 ± 0.06. Also, in experiment [2] (setting [3]), the change in vivo at 0.03 mg/kg came out at 8%. The change in vivo at 0.03 mg/kg in experiment [2] (setting [4]) was determined as 71%.
For `CC1SC(=O)NN=C1c1ccc2c(c1)C(C)(C)CC(=O)N2` (stereo not shown) [Example 35, 3,4-Dihydro-6-(3,6-dihydro-6-methyl-2-oxo-2H-1,3,4-thiadiazin-5-yl)-4,4-dimethyl-2(1H)-quinolinone], the “Max ATPase activity (%) (percent change of ATPase activity for pCa=5.47)” value in experiment [1] (3 × 10^-5 molar) is given as -1 ± 2%. Further, in experiment [1] (3 × 10^-5 molar), the “Ca2+ sensitivity p CA50 (shift of the pCa giving 50% of the maximal control ATPase activity)” value stood at 0.45 ± 0.05. Also, the change in vivo at 0.1 mg/kg in experiment [2] (setting [3]) is 20%; in experiment [2] (setting [4]) it was 49%.
